US20250320138A1 (priority 2022, published 2025)
“And” between values parts separate entries of the source, which are not always exact repeats. Identical values can stand only once.

Columns and labels:
[1] = tested on: chlorine-resistant Methylobacterium strain; type: cell-based, Methylobacterium fujisawaense
[2] = tested on: chlorine-resistant Methylobacterium strain; type: cell-based, Methylobacterium fujisawaense; remark: listed apart in the source

Q: Which results are given for `O=[O+][O-]` [ozone]?
A: bactericidal rate [1]: 0.0% and 9.4% and 2.1% and 5.0%; inner structure of cell body (electron microscope) [2]: an organization is packed inside the cell body similarly to the blank
